Assay results: patent US8642627B2 (priority 2002, dated 2014)
Where two headings read alike, the source gives them in different places.

What was measured:
[1] = aqueous system, 20° C.; cited from earlier work
adult = settings: cited from earlier work
[2] = cited from earlier work
[3] = apparent pH 6.5, 90% ethanol
[4] = Andersen Cascade Impactor (ACI) experiment; assay type: physicochemical

Structure (SMILES): CN1CCCC1c1cccnc1 (stereo not shown) [nicotine, 3-(1-methyl-2-pyrrolidinyl)-pyridine]
- pKa (physchem; apparent pKa of nicotine, 90% ethanol, titration curve with sulphuric acid): 6.5
- pKa (physchem; apparent pKa, ethanol-based system, 20° C.): ~6.5
- pKa for the acid dissociation constant of the mono protonated form of nicotine [1]: approximately 8.0
- amount that may kill an adult (adult): Approximately forty
- arterial levels exceeding the venous levels ([2]; in vivo): six- to ten-fold
- time to reach the brain after inhalation ([2]; smoking of a cigarette): ten
- share of nicotine in its free base form [3]: 50%
- behaviour of nicotine in the aerosol droplets ([4]; formulation at apparent pH 4.0, nicotine in salt form): remains in the liquid droplets
- behaviour of nicotine in the aerosol droplets ([4]; formulation at apparent pH 6.0): escapes from the liquid droplets as a vapor
- share of nicotine in its free base form ([4]; formulation at apparent pH 6.0): approximately 15%
